Assay results from patent publication US9670204B2, “Compounds and pharmaceutical compositions thereof for the treatment of inflammatory disorders” (Galapagos NV, priority 2013, dated 2017).

How the values were obtained:
hENPP2 [1] = biological target: T1, hENPP2 (UniProtKB/SwissProt Q13822) (Homo sapiens (Human), UniProt Q13822); test: hENPP2 biochemical assay, LPC as substrate; details: LPC (palmitoyl 16:0) as substrate
Summary of the method: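 Human ENPP2 in 50 mM Tris-HCl pH 8.5, 500 mM NaCl, 5 mM KCl, 10 mM CaCl2, 0.1% fatty-acid-free BSA, reacted 30 min at 37 °C with LPC 16:0 (150 µM solution added 1:1). Released choline measured via choline oxidase/peroxidase/TOOS/4-aminoantipyrine quinoneimine dye at 555 nm; IC50 reported.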

hENPP2 [2] = biological target: T1, hENPP2; test: fluorescent hENPP2 biochemical assay, FS-3 as substrate; details: read-out: FS3-IC50
Summary of the method: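 hENPP2 in 50 mM Tris-HCl pH 8.0, 250 mM NaCl, 5 mM KCl, 1 mM MgCl2, 1 mM CaCl2, 0.1% fatty-acid-free BSA, preincubated with compound 30 min at room temperature. The 0.75 μM FS-3 solution was added and the mixture incubated 30 min at 30° C. Fluorescence (ex 485/em 520 nm) gives IC50.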

LPA 18:2 in rat plasma = test: Rat whole blood (plasma) LPA assay; assay type: biochemical; details: 2 h at 37 C, LPA 18:2 by LC-MS/MS
Summary of the method: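 Heparinised rat plasma spiked with compound (1% DMSO final), incubated 2 h at 37 °C, 5% CO2 with shaking; controls kept at −20 °C. After methanol precipitation with LPA 17:0 internal standard, LPA 18:2 measured by LC-MS/MS (C18, isocratic), relative quantities from peak area without calibration.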

SMILES | IC50 (hENPP2 [1]) [nM] | IC50 (hENPP2 [2]) [nM] | IC50 (LPA 18:2 in rat plasma) [nM]
CCc1nc2ccc(C3=CCN(S(C)(=O)=O)CC3)cn2c1N(C)c1nc(-c2ccc(F)cc2)cs1 [Compound 66, N-(2-ethyl-6-(1-(methylsulfonyl)-1,2,3,6-tetrahydropyridin-4-yl)imidazo[1,2-a]pyridin-3-yl)-4-(4-fluorophenyl)-N-methylthiazol-2-amine] | > 1000 | 0.01 to 100 | > 1000
CCc1nc2ccc(C3CCN(CC(=O)N4CC(O)C4)CC3)cn2c1N(C)c1nc(-c2ccc(F)cc2C#N)ns1 [Compound 173, 2-(5-((2-ethyl-6-(1-(2-(3-hydroxyazetidin-1-yl)-2-oxoethyl)piperidin-4-yl)imidazo[1,2-a]pyridin-3-yl)(methyl)amino)-1,2,4-thiadiazol-3-yl)-5-fluorobenzonitrile] | 0.01 to 100 | 0.01 to 100 | 100 to 500
CCc1nc2ccc(C3CCN(CC(=O)N4CC[C@H](O)C4)CC3)cn2c1N(C)c1nc(-c2ccc(F)cc2)cs1 [Compound 112, (S)-2-(4-(2-ethyl-3-((4-(4-fluorophenyl)thiazol-2-yl)(methyl)amino)imidazo[1,2-a]pyridin-6-yl)piperidin-1-yl)-1-(3-hydroxypyrrolidin-1-yl)ethanone] | 100 to 500 | 0.01 to 100 | 100 to 500
CCc1nc2ccc(C3CCN(S(C)(=O)=O)CC3)cn2c1N(C)c1nc(-c2ccc(F)cc2)c(C(=O)C(F)(F)F)s1 [Compound 160, 1-(2-((2-ethyl-6-(1-(methylsulfonyl)piperidin-4-yl)imidazo[1,2-a]pyridin-3-yl)(methyl)amino)-4-(4-fluorophenyl)thiazol-5-yl)-2,2,2-trifluoroethanone] | 100 to 500 | 0.01 to 100 | 0.01 to 100
CCc1nc2ccc(C3CCN(CC(=O)N4CC[C@@H](O)C4)CC3)cn2c1N(C)c1nc(-c2ccc(F)cc2)cs1 [Compound 111, (R)-2-(4-(2-ethyl-3-((4-(4-fluorophenyl)thiazol-2-yl)(methyl)amino)imidazo[1,2-a]pyridin-6-yl)piperidin-1-yl)-1-(3-hydroxypyrrolidin-1-yl)ethanone] | 100 to 500 | 0.01 to 100 | 500 to 1000
CCc1nc2ccc(N3CCN(CC(=O)N(C)C)CC3)cn2c1N(C)c1nc(-c2ccc(F)cc2)c(CO)s1 [Compound 155, 2-(4-(2-ethyl-3-((4-(4-fluorophenyl)-5-(hydroxymethyl)thiazol-2-yl)(methyl)amino)imidazo[1,2-a]pyridin-6-yl)piperazin-1-yl)-N,N-dimethylacetamide] | 500 to 1000 | 0.01 to 100 | 100 to 500
CCc1nc2ccc(N3CCN(S(C)(=O)=O)CC3)cn2c1N(C)c1nc(-c2ccc(Cl)cc2)ns1 [Compound 188, 3-(4-chlorophenyl)-N-(2-ethyl-6-(4-(methylsulfonyl)piperazin-1-yl)imidazo[1,2-a]pyridin-3-yl)-N-methyl-1,2,4-thiadiazol-5-amine] | > 1000 | 0.01 to 100 | > 1000
CCc1nc2ccc(C3CCN(S(C)(=O)=O)CC3)cn2c1N(C)c1nc(-c2ccc(F)cc2)c(C#N)s1 [Compound 136, 2-((2-ethyl-6-(1-(methylsulfonyl)piperidin-4-yl)imidazo [1,2-a]pyridin-3-yl)(methyl)amino)-4-(4-fluorophenyl) thiazole-5-carbonitrile] | 100 to 500 | 0.01 to 100 | 0.01 to 100
CCc1nc2ccc(C3CCN(S(=O)(=O)CCCN(C)C)CC3)cn2c1N(C)c1nc(-c2ccc(F)cc2)cs1 [Compound 87, N-(6-(1-(3-(dimethylamino)propyl-sulfonyl)piperidin-4-yl)-2-ethylimidazo[1,2-a]pyridin-3-yl)-4-(4-fluorophenyl)-N-methylthiazol-2-amine] | 100 to 500 | 0.01 to 100 | 100 to 500
CCc1nc2ccc(N3CCS(=O)(=O)CC3)cn2c1N(C)c1nc(-c2ccc(Cl)cc2)cs1 [Compound 213, 4-(2-ethyl-3-((4-(4-chlorophenyl)thiazol-2-yl)(methyl)amino)imidazo[1,2-a]pyridin-6-yl)-thiomorpholin-1,1-dioxide] | > 1000 | 0.01 to 100 | > 1000
CCc1nc2ccc(N3CCN(C(=O)C4CCCN4)CC3)cn2c1N(C)c1nc(-c2ccc(F)cc2)cs1 (stereo not drawn) [Compound 46, (4-(2-ethyl-3-((4-(4-fluorophenyl)thiazol-2-yl)(methyl)amino)imidazo[1,2-a]pyridin-6-yl)piperazin-1-yl)(pyrrolidin-2-yl)methanone] | > 1000 | 0.01 to 100 | > 1000
CCc1nc2ccc(C3CCN(CC(=O)N(C)C)CC3)cn2c1N(C)c1nc(-c2ccc(F)cc2C#N)cs1 [Compound 171, 2-(4-(3-((4-(2-cyano-4-fluorophenyl)thiazol-2-yl)(methyl)amino)-2-ethylimidazo[1,2-a]pyridin-6-yl)piperidin-1-yl)-N,N-dimethylacetamide] | 0.01 to 100 | 0.01 to 100 | 100 to 500
CCc1nc2ccc(C3=CCN(S(C)(=O)=O)CC3)cn2c1N(C)c1nccc(-c2ccc(F)cc2)n1 [Compound 187, 2-ethyl-N-(4-(4-fluorophenyl)pyrimidin-2-yl)-N-methyl-6-(1-(methylsulfonyl)-1,2,3,6-tetrahydropyridin-4-yl)imidazo[1,2-a]pyridin-3-amine] | > 1000 | 0.01 to 100 | 100 to 500
CCc1nc2ccc(N3CCN(CC(=O)N4CCC4)CC3)cn2c1N(C)c1nc(-c2ccc(F)cc2C#N)cs1 [Compound 167, 2-(2-((6-(4-(2-(azetidin-1-yl)-2-oxoethyl)piperazin-1-yl)-2-ethylimidazo[1,2-a]pyridin-3-yl)(methyl)amino)thiazol-4-yl)-5-fluorobenzonitrile] | 0.01 to 100 | 0.01 to 100 | 100 to 500
CCc1nc2ccc(N3CCN(S(C)(=O)=O)CC3)cn2c1N(C)c1nc(-c2ccc(F)cc2)cs1 [Compound 54, N-(2-ethyl-6-(4-(methylsulfonyl)piperazin-1-yl)imidazo [1,2-a]pyridin-3-yl)-4-(4-fluorophenyl)-N-methylthiazol-2-amine] | 500 to 1000 | 0.01 to 100 | > 1000
CCc1nc2ccc(N3CCN(Cc4ncc[nH]4)CC3)cn2c1N(C)c1nc(-c2ccc(F)cc2)cs1 [Compound 226, N-(6-(4-((1H-imidazol-2-yl)methyl)piperazin-1-yl)-2-ethylimidazo[1,2-a]pyridin-3-yl)-4-(4-fluorophenyl)-N-methylthiazol-2-amine] | > 1000 | 0.01 to 100 | > 1000
CCc1nc2ccc(C3CCN(CC(=O)N4CC(O)C4)CC3)cn2c1N(C)c1nc(-c2ccc(F)cc2)c(CO)s1 [Compound 156, 2-(4-(2-ethyl-3-((4-(4-fluorophenyl)-5-(hydroxymethyl)thiazol-2-yl)(methyl)amino)imidazo[1,2-a]pyridin-6-yl)piperidin-1-yl)-1-(3-hydroxyazetidin-1-yl)ethanone] | 500 to 1000 | 0.01 to 100 | > 1000
CCc1nc2ccc(N3CCN(S(=O)(=O)CCCN(C)C)CC3)cn2c1N(C)c1nc(-c2ccc(F)cc2)cs1 [Compound 56, N-(6-(4-(3-(dimethylamino)propyl-sulfonyl)piperazin-1-yl)-2-ethylimidazo[1,2-a]pyridin-3-yl)-4-(4-fluorophenyl)-N-methylthiazol-2-amine] | 500 to 1000 | 0.01 to 100 | > 1000
CCc1nc2ccc(C3CCN(S(=O)(=O)CCCO)CC3)cn2c1N(C)c1nc(-c2ccc(F)cc2)c(F)s1 [Compound 95, 3-[4-(2-Ethyl-3-{[5-fluoro-4-(4-fluoro-phenyl)-thiazol-2-yl]-methyl-amino}-imidazo[1,2-a]pyridin-6-yl)-piperidine-1-sulfonyl]-propan-1-ol] | > 1000 | 0.01 to 100 | 100 to 500
CCc1nc2ccc(C3CCN(S(C)(=O)=O)CC3)cn2c1N(C)c1nc(-c2ccc(F)cc2C#N)cs1 [Compound 96, 2-(2-((2-ethyl-6-(1-(methylsulfonyl)piperidin-4-yl)imidazo [1,2-a]pyridin-3-yl)(methyl)amino)thiazol-4-yl)-5-fluorobenzonitrile] | 100 to 500 | 0.01 to 100 | 0.01 to 100
CCc1nc2c(C)cc(N3CCN(CC(=O)N4CC[C@@H](O)C4)CC3)cn2c1N(C)c1nc(-c2ccc(F)cc2)c(C#N)s1 [Compound 4, (R)-2-((2-ethyl-6-(4-(2-(3-hydroxypyrrolidin-1-yl)-2-oxoethyl)piperazin-1-yl)-8-methylimidazo[1,2-a]pyridin-3-yl)(methyl)amino)-4-(4-fluorophenyl)thiazole-5-carbonitrile] | 100 to 500 | 0.01 to 100 | 100 to 500
CCc1nc2ccc(C3CCN(S(=O)(=O)CCCO)CC3)cn2c1N(C)c1nc(-c2ccc(F)cc2)cs1 [Compound 94, 3-[4-(2-Ethyl-3-{[4-(4-fluoro-phenyl)-thiazol-2-yl]-methyl-amino}-imidazo[1,2-a]pyridin-6-yl)-piperidine-1-sulfonyl]-propan-1-ol] | 500 to 1000 | 0.01 to 100 | 500 to 1000
